Measured values from PMC8623647 (Pharmaceuticals, 2021).
Where “and” joins values, the source holds several entries; their conditions need not be identical. Identical values can stand only once. Entries after “also recorded” stand apart in the source; their conditions may differ. Like-named read-outs stand apart in the source and are kept apart here.

Assays:
MAO-B [1] = target: T1, MAO-B (Homo sapiens, UniProt P27338); assay: Reversibility of MAO-B inhibition by dialysis; assay type: biochemical; details: for MAO-B activity of dialyzed sample (AD): after dialysis; for MAO-B activity of dialyzed sample (AD) / MAO-B activity of undialyzed sample (AU): test compounds […], lazabemide 0.20 µM, pargyline 0.30 µM; for MAO-B activity of undialyzed sample (AU): preincubated 30 min; for Reversibility of MAO-B inhibition: dialysis-based method
T1 sequence (P27338 1-520): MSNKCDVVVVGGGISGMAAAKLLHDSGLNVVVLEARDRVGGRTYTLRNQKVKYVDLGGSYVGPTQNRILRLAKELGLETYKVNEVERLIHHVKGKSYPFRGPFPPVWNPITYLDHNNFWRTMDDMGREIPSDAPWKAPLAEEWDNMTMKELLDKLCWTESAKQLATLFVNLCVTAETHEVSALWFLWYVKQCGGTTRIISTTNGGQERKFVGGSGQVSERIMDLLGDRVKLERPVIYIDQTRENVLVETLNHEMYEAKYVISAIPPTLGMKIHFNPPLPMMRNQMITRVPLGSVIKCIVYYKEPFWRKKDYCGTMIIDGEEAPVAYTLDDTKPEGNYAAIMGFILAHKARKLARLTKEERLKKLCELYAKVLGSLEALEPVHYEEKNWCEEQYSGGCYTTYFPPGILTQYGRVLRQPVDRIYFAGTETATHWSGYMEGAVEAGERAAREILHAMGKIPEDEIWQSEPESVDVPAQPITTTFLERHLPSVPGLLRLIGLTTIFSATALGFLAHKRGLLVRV
Method: The reversibilities of MAO-B inhibitions by TM1 and TM8 were assessed by dialysis. […] Reversibility patterns were determined by comparing the activities of dialyzed (AD) and undialyzed (AU) samples.

[2] = Cytotoxicity by MTT assay; assay type: cell-based, African Green Monkey; details: African green monkey, Vero cells (kidney); Vero cells treated at effective concentrations; read-out: Cells remaining viable
Method: (§1) African Green Monkey kidney cells (VERO cells) were used to evaluate the cytotoxic effects of TM1 and TM8. Cells were incubated with different doses (1 µg/mL to 500 µg/mL) of the two compounds for 48 h, and relative cell viabilities were determined by MTT assay.
(§2) The cytotoxicities and ROS quenching abilities of the two lead compounds (TM1 and TM8) were evaluated as previously described.
(§3) Figure 4 Effect of TM1 on Vero cell viability. (a) cell viability treated with TM1; (b) dose-response curve; (c) phase contrast microscope images of Vero cells treated with different concentrations of TM1. Cells were treated with TM1 for 48 h and cell viabilities were assessed by MTT assay as described in Section 4.
as §3, with “Figure 5” for “Figure 4”, “of TM8” for “of TM1”, “with TM8;” for “with TM1;”, “of TM8.” for “of TM1.”, “with TM8” for “with TM1”

Vero cells [3] = assay: Cytotoxicity by MTT assay; assay type: cell-based, African Green Monkey; details: 48 h, MTT assay; for IC50: Chlorocebus sabaeus, Vero, read-out: IC50 for Vero cell viability; for Concentrations resulting in high viability (>90%): Vero cells
Method: as §1, §2, §3
as §3, with “Figure 5” for “Figure 4”, “of TM8” for “of TM1”, “with TM8;” for “with TM1;”, “of TM8.” for “of TM1.”, “with TM8” for “with TM1”

MAO-B [4] = target: T1, MAO-B; assay: Kinetics study of MAO-B inhibition (Lineweaver-Burk and secondary plots); assay type: biochemical
Method: Kinetic studies on MAO-B inhibitions were performed on TM1 and TM8.

[5] = BBB permeation by parallel artificial membrane permeability assay (PAMPA); assay type: in vitro ADME; details: for Blood-brain barrier permeability in words: PAMPA; for Prediction (BBB permeation): PAMPA-BBB class from Pe; for Papp: read-out: Experimental Pe
From the text: The CNS bioavailability of the lead candidates was further ascertained by PAMPA method [31].

Vero cells [6] = assay: ROS assay (H2O2-induced ROS levels); assay type: cell-based, African Green Monkey; details: compound at its IC50 value, exogenous H2O2
Method: ROS increase vulnerability to neuronal damage by causing oxidative damage in the brain during neurodegenerative diseases.
as §2
Figure 6 Effects of TM1 (a) and TM8 (b) on H2O2-induced ROS levels. Vero cells (1 × 10^6 cells/mL) were pre-incubated with 100 μg/mL of 30% H2O2 and ROS production was evaluated immediately as described in Section 4.

recombinant human MAO-A = target: T2, recombinant human MAO-A (Homo sapiens, UniProt P21397); assay: MAO-A enzyme inhibition (kynuramine substrate, 316 nm); details: for remaining activity at 10 µM: read-out: Residual Activity at 10 µM (%) MAO-A
T2 sequence (P21397 1-527): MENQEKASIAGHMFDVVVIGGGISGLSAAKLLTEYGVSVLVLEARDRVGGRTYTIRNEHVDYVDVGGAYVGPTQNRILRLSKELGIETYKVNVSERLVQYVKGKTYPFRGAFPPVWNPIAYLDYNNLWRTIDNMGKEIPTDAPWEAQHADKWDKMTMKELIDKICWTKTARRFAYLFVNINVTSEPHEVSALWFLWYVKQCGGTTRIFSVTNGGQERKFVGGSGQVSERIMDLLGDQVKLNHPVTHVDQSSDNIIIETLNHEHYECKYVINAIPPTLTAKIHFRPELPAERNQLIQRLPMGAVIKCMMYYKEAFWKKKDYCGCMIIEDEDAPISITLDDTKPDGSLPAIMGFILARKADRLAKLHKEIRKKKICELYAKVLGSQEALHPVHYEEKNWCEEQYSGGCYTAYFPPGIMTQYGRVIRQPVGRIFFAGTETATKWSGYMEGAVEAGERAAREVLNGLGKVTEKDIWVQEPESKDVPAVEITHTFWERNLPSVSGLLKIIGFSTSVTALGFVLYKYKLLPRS
Method: (§4) MAO activity assays were performed using recombinant human MAO-A or MAO-B.
(§5) IC50 values were determined by measuring residual enzyme activities.

MAO-B [7] = target: T1, MAO-B; assay: MAO-B enzyme inhibition (benzylamine substrate, 250 nm); details: for SI (hMAO-B selectivity index): IC50(hMAO-A) divided by IC50(hMAO-B); for Times more potent than pargyline (MAO-B) / Times more potent than the reference drug lazabemide (MAO-B): ratio of MAO-B IC50 values; for remaining activity at 10 µM: read-out: Residual Activity at 10 µM (%) MAO-B
Method: as §4, §5

[8] = parameters: method as in PMID 12667689; details: PAMPA-BBB ref 31; cited from earlier work
MAO-B [9] = target: MAO-B; parameters: method as in PMID 28577983; details: methoxylated chalcones previously reported ref 30; cited from earlier work

Row | Compound | Prediction (BBB permeation) [5] | Papp ([5]; PAMPA-BBB) [×10⁻⁶ cm/s] | IC50 (recombinant human MAO-A) [µM] | remaining activity at 10 µM (recombinant human MAO-A) [%] | IC50 (MAO-B [7]) [µM] | SI (hMAO-B selectivity index) (MAO-B [7]) | Times more potent than the reference drug lazabemide (MAO-B) (MAO-B [7]) [times] | remaining activity at 10 µM (MAO-B [7]) [%] | other results
1 | NCCNC(=O)c1ccc(Cl)cn1 [Lazabemide, reference compound] |  |  |  |  |  |  |  |  | MAO-B activity of dialyzed sample (AD) (MAO-B [1]): 74.9%; MAO-B activity of undialyzed sample (AU) (MAO-B [1]): 16.6%
2 | CSc1ccc(C(=O)/C=C/c2ccccc2)cc1 [TM1] | CNS+ (CNS+ (high BBB permeation predicted): Pe (10^−6 cm·s^−1) > 4.00) | 15.5 ± 0.33 | 13.8 ± 0.05 | 62.6 ± 9.7 | 0.017 ± 0.003 | 812 and 811.8 | 3.7 | 13.2 ± 0.7 | viability at 48 h [2]: > 90%; IC50 (Vero cells [3]; converted from µg/mL): 948 µM; IC50 (Vero cells [3]): 242 µg/mL; Concentrations resulting in high viability (>90%) (Vero cells [3]): < 250 µg/mL; Concentrations resulting in high viability (>90%) (Vero cells [3]; converted from µg/mL): < 983.1 µM; Inhibitor type for MAO-B (MAO-B [4]; Lineweaver-Burk plots): competitively inhibited MAO-B; also recorded: competitive; Ki (MAO-B [4]; from secondary plots of slopes vs. inhibitor concentrations): 0.011 ± 0.001 µM; Blood-brain barrier permeability in words [5]: high blood-brain barrier permeabilities; MAO-B activity of dialyzed sample (AD) (MAO-B [1]): 68.1%; Reversibility of MAO-B inhibition (MAO-B [1]): reversible MAO-B inhibitors; MAO-B activity of undialyzed sample (AU) (MAO-B [1]): 24.9%; Effect on H2O2-induced intracellular ROS levels (Vero cells [6]): significantly reduced reactive oxygen species (ROS) levels; also recorded: appreciably lower ROS levels; also recorded: mitigated H2O2-induced increases in ROS levels; Times more potent than pargyline (MAO-B) (MAO-B [7]): 1.6 times
3 | CN1C(C(=O)Nc2ccccn2)=C(O)c2ccccc2S1(=O)=O [Piroxicam, reference compound] | CNS± (CNS± (BBB permeation uncertain): Pe (10^−6 cm·s^−1) from 2.00 to 4.00) |  |  |  |  |  |  |  | Experimental Pe ([5]; PAMPA-BBB): 2.44 ± 0.26 ×10^−6 cm·s^−1; Bibliography Pe [8]: 2.5 ×10⁻⁶ cm/s
4 | CSc1ccc(C(=O)/C=C/c2ccc(F)cc2)cc1 [TM10] | CNS+ (CNS+ (high BBB permeation predicted): Pe (10^−6 cm·s^−1) > 4.00) | 15.2 ± 0.44 | 13.7 ± 1.22 | 57.9 ± 6 | 0.026 ± 0.004 | 526.9 | 2.4 | -0.4 ± 2.7 | Times more potent than pargyline (MAO-B) (MAO-B [7]): almost as potent as pargyline
5 | CSc1ccc(C(=O)/C=C/c2ccc(O)cc2)cc1 [TM2] | CNS+ (CNS+ (high BBB permeation predicted): Pe (10^−6 cm·s^−1) > 4.00) | 13.3 ± 0.8 | 7.45 ± 0.25 | 48.3 ± 2.4 | 0.021 ± 0.003 | 354.8 | 3.0 | -5.7 ± 5.3 | Times more potent than pargyline (MAO-B) (MAO-B [7]): 1.3 times
6 | CSc1ccc(C(=O)/C=C/c2ccc(Br)cc2)cc1 [TM9] |  |  | 33.6 ± 2.56 | 74.7 | 0.088 ± 0.006 | 381.8 |  | 7.5 ± 2.1 | 
7 | COc1ccc(/C=C/C(=O)c2ccc(SC)cc2)cc1 [TM3] |  |  | 8.82 ± 0.09 | 44.6 ± 1.9 | 0.088 ± 0.011 | 100.2 |  | 6.9 | 
8 | CSc1ccc(C(=O)/C=C/c2ccc(C)cc2)cc1 [TM4] |  |  | 12 ± 0.99 | 71.6 ± 3.8 | 0.058 ± 0.001 | 206.9 | 1.1 | 14.7 ± 2.8 | 
9 | COc1ccc(C(=O)/C=C/c2ccccc2)cc1 [Compound C1] |  |  |  |  |  |  |  |  | Ki (MAO-B [9]): 0.7 ± 0.05 µM; SI for MAO-B (MAO-B [9]): 5.07
10 | CSc1ccc(C(=O)/C=C/c2ccc([N+](=O)[O-])cc2)cc1 [TM7] | CNS+ (CNS+ (high BBB permeation predicted): Pe (10^−6 cm·s^−1) > 4.00) | 15.5 ± 0.71 | 30 ± 3.02 | 66.1 ± 2.6 | 0.023 ± 0.001 | 1304 and 1304.3 | 2.7 | 6 ± 1.9 | Times more potent than pargyline (MAO-B) (MAO-B [7]): almost as potent as pargyline
11 | CCn1cc(C(=O)O)c(=O)c2cc(F)c(N3CCNC(C)C3)c(F)c21 (stereo not drawn) [Lomefloxacin, reference compound] | CNS− (CNS− (low BBB permeation predicted): Pe (10^−6 cm·s^−1) < 2.00) | 1.22 ± 0.02 |  |  |  |  |  |  | 
12 | COc1ccc(C(=O)/C=C/c2ccc(Cl)cc2)cc1 [Compound C8] |  |  |  |  |  |  |  |  | SI for MAO-B (MAO-B [9]): 3.89
13 | CSc1ccc(C(=O)/C=C/c2ccc(Cl)cc2)cc1 [TM8] | CNS+ (CNS+ (high BBB permeation predicted): Pe (10^−6 cm·s^−1) > 4.00) | 16.3 ± 0.26 | 48.6 ± 3.44 | 77.4 ± 8.2 | 0.01 ± 0.005 |  | 6.3 | 4.1 ± 0.5 | viability at 48 h [2]: > 90%; IC50 (Vero cells [3]; converted from µg/mL): 402 µM; IC50 (Vero cells [3]): 116 µg/mL; Blood-brain barrier permeability in words [5]: high blood-brain barrier permeabilities; MAO-B activity of dialyzed sample (AD) (MAO-B [1]): 69.3%; Reversibility of MAO-B inhibition (MAO-B [1]): reversible MAO-B inhibitors; MAO-B activity of undialyzed sample (AU) (MAO-B [1]): 33.1%; Effect on H2O2-induced intracellular ROS levels (Vero cells [6]): significantly reduced reactive oxygen species (ROS) levels; also recorded: appreciably lower ROS levels; also recorded: mitigated H2O2-induced increases in ROS levels; Times more potent than pargyline (MAO-B) (MAO-B [7]): 2.8 times
14 | CC(=O)[C@H]1CC[C@H]2[C@@H]3CCC4=CC(=O)CC[C@]4(C)[C@H]3CC[C@]12C [Progesterone, reference compound] | CNS+ (CNS+ (high BBB permeation predicted): Pe (10^−6 cm·s^−1) > 4.00) |  |  |  |  |  |  |  | 
15 | CSc1ccc(C(=O)/C=C/c2ccc(N(C)C)cc2)cc1 [TM5] |  |  | 5.91 ± 0.87 | 47.9 ± 3.7 | 0.12 ± 0.011 | 49.3 |  | 1.6 ± 1.1 | 
16 | NCCc1ccc(O)c(O)c1 [Dopamine, reference compound] | CNS− (CNS− (low BBB permeation predicted): Pe (10^−6 cm·s^−1) < 2.00) |  |  |  |  |  |  |  | Bibliography Pe [8]: 0.2 ×10⁻⁶ cm/s
17 | CSc1ccc(C(=O)/C=C/c2ccc(C(F)(F)F)cc2)cc1 [TM11] |  |  | 25.2 ± 0.14 | 79.5 ± 0.7 | 0.081 ± 0.032 | 311.1 |  | 7.4 ± 1.2 | 
18 | CCc1ccc(/C=C/C(=O)c2ccc(SC)cc2)cc1 [TM6] |  |  | 6.71 ± 0.75 | 49.4 ± 8.7 | 0.13 ± 0.005 | 51.6 |  | -9.5 | 
